Experiments:
Janus kinase 2 (Jak2) = assay: attenuation of Compound A effects by Jak2 inhibitor; conditions: both in vitro and in vivo
Source text: (§1) All of these events were reported to be important in the development of Cerebral Malaria (CM).

microglia = assay: LPS-induced microglial inflammation in vivo; conditions: LPS 1 mg/kg i.p. on days 1, 3 and 5
Method: Animals were treated with either vehicle and 8% 2H2O label for 1 week. LPS (1 mg/kg, i.p) was injected on days 1, 3 and 5 of drug treatment and label. Microglia were isolated from brain and sorted by flow cytometry as CD11b+, F4/80+ cells. DNA was isolated from sorted microglia cells, hydrolyzed and derivatized for GC/MS analyses.

[1] = system: more than 60 receptors and enzymes
hippocampal neurogenesis = hippocampal neurogenesis in vivo; conditions: 1 week treatment, 2H2O label
ICAM-1 = assay: TNFα-induced production of ICAM-1 in human brain microvascular endothelial cells; format: cell-based; conditions: TNF-treated human brain microvascular endothelial cells (MVECs)
Source text: as §1

VCAM-1 = assay: TNFα-induced production of VCAM-1 in human brain microvascular endothelial cells; format: cell-based; conditions: TNF-treated human brain microvascular endothelial cells (MVECs)
Source text: as §1

TNF = TNF expression
Source text: as §1

sepsis-induced death = sepsis-induced death in rodents (survival study); format: in vivo
Method: FIG. 5 is a graph showing results of a study that indicates α7 agonists can prevent sepsis-induced death in rodents. Survival was monitored daily from day 0 to day 6. In the vehicle control group there was a 13% survival by day 6. In the animals treated with 0.003 mg/kg Compound B, there was a 13% survival by day (NS, p=0.360). In the animals treated with 0.03 mg/kg Compound B, there was also a 13% survival by day (NS, p=0.528). […] Survival was 47% in this group, a significant improvement in survival (p=0.005).

N#C/C(=C/c1ccc(O)c(O)c1)C(=O)NCc1ccccc1 [AG-490]
effect on the effects of Compound A (Janus kinase 2 (Jak2)): attenuates the effects of Compound A

Cc1ccc(C(=O)N[C@@H]2C3CCN(CC3)[C@H]2Cc2cccnc2)s1 [Compound A, (2S,3R)-N-(2-((3-pyridinyl)methyl)-1-azabicyclo[2.2.2]oct-3-yl)-5-methylthiophene-2-carboxamide]
microglial inflammation (microglia): prevents microglial inflammation in vivo
separation with other targets [1]: 100-1000
hippocampal neurogenesis (hippocampal neurogenesis): promotes hippocampal neurogenesis in vivo
levels of ICAM-1 expression (ICAM-1): decreases the levels of ICAM-1 and VCAM-1 expression
levels of VCAM-1 expression (VCAM-1): decreases the levels of ICAM-1 and VCAM-1 expression
TNF expression (TNF): significantly inhibits TNF expression

O=C(N[C@@H]1C2CCN(CC2)[C@H]1Cc1cccnc1)c1cc2ccccc2o1 [Compound B, (2S,3R)-N-(2-((3-pyridinyl)methyl)-1-azabicyclo[2.2.2]oct-3-yl)benzofuran-2-carboxamide]
survival by day 6 (sepsis-induced death; 0.003 mg/kg, NS, p=0.360, vehicle control 13%): 13%
survival by day 6 (sepsis-induced death; 0.03 mg/kg, NS, p=0.528, vehicle control 13%): 13%
survival by day 6 (sepsis-induced death; 0.3 mg/kg, p=0.005, vehicle control 13%): 47%

Source: patent US20090239901A1, “METHOD AND COMPOSITIONS FOR TREATMENT OF CEREBRAL MALARIA” (priority 2008, published 2009)
